Measurements published in patent US12220412B2, “Methods for administering corticosteroids” (Sparrow Pharmaceuticals, Inc., priority 2018, dated 2025).

Experiments:
[1] = test system: mice; assay: Corticosterone-induced deficit of Y-maze exploration (alternation rate); assay type: in vivo; settings: single doses of 0.3 to 3 mg/kg
Excerpt: (§1) (a) no CS; (b)-(f) CS; dosage of Compound A (mg/kg): (b) 0; (c) 0.01; (d) 0.03; (e) 1; (f) 3.
Mice typically prefer to explore the novel arm of a Y-maze, a behavior considered indicative of short-term memory. Corticosterone (CS) decreases the percentage of times mice enter the novel arm of a Y maze, and so is considered to have a negative cognitive effect.

[2] = test system: magnesium-deficient mice; assay: Corticosterone (CS)-induced tail biting behavior in magnesium-deficient mice given N-methyl-D-aspartate; assay type: in vivo; settings: N-methyl-D-aspartate and corticosterone, single doses of 0.3 to 3 mg/kg
Excerpt: as §1
Increased tail biting, an anxiety behavior, was induced in magnesium-deficient mice with administration of N-methyl-D-aspartate and corticosterone (CS). Tail biting was not induced by N-methyl-D-aspartate without co-administration of CS (FIG. 9(a)).

In the case of `Cn1c(-c2ccc(C(N)=O)cc2F)nnc1C(C)(C)Oc1c(F)cc(Cl)cc1F` [Compound A], the “Y-maze novel arm exploration behavior (alternation rate) after corticosterone” value [1] is reported as “restored a more normal behavior pattern” and the “CS-dependent increase of tail biting behavior” value [2] is reported as “fully reversed”.
